Measured values reported in US6573247B1, “Anti-viral pyrimidine nucleoside analogues” (University College Cardiff Consultants Limited, priority 1997, dated 2003).
Entries after “also recorded” stand apart in the source; their conditions may differ. Read-outs that look alike come from different tables or passages of the source.

What was measured:
[1] = test system: HSV-1; details: cited from earlier work
[2] = test system: HSV-2; details: cited from earlier work
[3] = test system: VZV; details: cited from earlier work
[4] = test system: CMV; details: cited from earlier work
[5] = CC50 in tissue culture assay; format: cell-based, human; details: human
Method: (§1) Each of the products of Examples 1, 2, 3 and 4 was tested in vitro in tissue culture assays for potent antiviral action with respect to varicella zoster virus (VZV). Acyclovir was included in the test procedure as a control. VZV (strains OKa and YS) induced cytopathogenicity in human embryonic lung fibroblast (HEL) cells was measured 7 days post infection. EC50 was defined as the drug concentration (in μM) required to reduce virus-induced cytopathicity by 50%.
(§2) Each of the products of Examples 7 and 8 was tested in vitro in tissue culture assays for potent antiviral action with respect to varicella zoster virus (VZV). Acyclovir was included in the test procedure as a control. EC50 and CC50 values were measured as described under examples 1 to 6 above. […]

[6] = test system: human embryonic lung fibroblast (HEL) cells; test: CC50 in tissue culture assay; format: cell-based
Method: as §1, §2

[7] = test system: cytomegalovirus (CMV); test: CMV induced cytopathogenicity in HEL cells (in vitro tissue culture assay); format: cell-based; details: for EC50: Table IV, CMV induced cytopathogenicity in HEL cells
Method: The product of Example 8 was additionally tested in vitro in tissue culture assays for potent antiviral action with respect to cytomegalovirus (CMV). CMV induced cytopatho-genicity in human embryonic lung fibroblast (HEL) cells was measured post infection. EC50 and CC50 were defined as above for VZV. The equivalent data for the known CMV active agent dihydroxypropyl guanine (DHPG) is included in Table IV as a control.

[8] = test system: varicella zoster virus (VZV) (strains OKa and YS); test: microbe, parasite or virus in culture; format: cell-based; details: for EC50: read-out: EC50/VZV/μM; for antiviral activity with respect to varicella zoster virus (in words): verbal assessment
Method: VZV (strains OKa and YS) induced cytopathogenicity in human embryonic lung fibroblast (HEL) cells was measured 7 days post infection. EC50 was defined as the drug concentration (in μM) required to reduce virus-induced cytopathicity by 50%.
The values of EC50 and CC50 were measured as above.

[9] = Table I, VZV strains OKa and YS, HEL cells, 7 days post infection, concentration reducing virus-induced cytopathicity by 50%
[10] = Table II, X = O, R chain length series, concentration reducing virus-induced cytopathicity by 50%
[11] = Table III, measured as under examples 1 to 6

O=c1nc2occc2cn1C1CC(O)C(CO)O1 (stereo not shown)
activity in in vitro assay against HSV-1 [1]: inactive | activity in in vitro assay against HSV-2 [2]: inactive | activity in in vitro assay against VZV [3]: inactive | activity in in vitro assay against CMV [4]: inactive

Nc1nc2c(ncn2COCCO)c(=O)[nH]1 [Acyclovir, reference compound]
CC50 [5]: > 100000 nM | CC50 ([6]; human): > 100 µM

Nc1nc2c(ncn2COC(CO)CO)c(=O)[nH]1 [DHPG, dihydroxypropyl guanine, reference compound]
CC50 [6]: > 200 µM | EC50 [7]: 3.1 µM

CCCCCCCCCCCCc1cc2cn([C@H]3C[C@H](O)[C@@H](CO)O3)c(=O)nc2o1 [Example 1, 3-(2′-Deoxy-β-D-ribofuranosyl)-6-dodecyl-2,3dihydrofuro[2,3-d]pyrimidin-2-one]
EC50 [8, 9]: ≤ 1.2 µM | EC50 [8, 10]: ≤ 1.2 µM | antiviral activity with respect to varicella zoster virus (in words) [8]: antiviral activity comparable to acyclovir | CC50 ([6]; Table I, read-out: CC50/μM): > 200 µM

CCCCCCCCCCc1cc2cn([C@H]3C[C@H](O)[C@@H](CO)O3)c(=O)nc2o1 [Example 2, 3-(2′-Deoxy-β-D-ribofuranosyl)-6-decyl-2,3-dihydrofuro[2,3-d]pyrimidin-2-one]
EC50 [8, 9]: 0.005 µM | EC50 [8, 10]: 0.005 µM | antiviral activity with respect to varicella zoster virus (in words) [8]: extremely potent antiviral activity | CC50 [6]: > 50 µM

CCCCCCCCc1cc2cn(C3CC(O)C(CO)O3)c(=O)nc2o1 [Example 3, 3-(2′-Deoxy-β-D-ribofuranosyl)-6-octyl-2,3-dihydrofuro[2,3-d]pyrimidin-2-one]
EC50 ([8]; Human alphaherpesvirus 3, HEL, 168 h): 0.003 µM | EC50 ([8]; Human alphaherpesvirus 3, HEL): 0.03 µM | antiviral activity with respect to varicella zoster virus (in words) [8]: extremely potent antiviral activity; also recorded: antiviral activity comparable to acyclovir | CC50 [5]: > 50000 nM

CCCCCCc1cc2cn([C@H]3C[C@H](O)[C@@H](CO)O3)c(=O)nc2o1 [Example 4, 3-(2′-Deoxy-β-D-ribofuranosyl)-6-hexyl-2,3-dihydrofuro[2,3-d]pyrimidin-2-one]
EC50 [8, 9]: 1.3 µM | EC50 [8, 10]: 1.3 µM | CC50 [6]: > 200 µM

CCCCCc1cc2cn([C@H]3C[C@H](O)[C@@H](CO)O3)c(=O)nc2o1 [Example 5, 3-(2′-Deoxy-β-D-ribofuranosyl)-6-pentyl-2,3-dihydrofuro[2,3-d]pyrimidin-2-one]
EC50 [8, 10]: 3 µM

CCCCCCCc1cc2cn([C@H]3C[C@H](O)[C@@H](CO)O3)c(=O)nc2o1 [Example 6, 3-(2′-Deoxy-β-D-ribofuranosyl)-6-heptyl-2,3-dihydrofuro[2,3-d]pyrimidin-2-one]
EC50 [8, 10]: 0.17 µM

O=c1nc2oc(CCCCCCCCCO)cc2cn1[C@H]1C[C@H](O)[C@@H](CO)O1 [Example 7, 3-(2′-Deoxy-β-D-ribofuranosyl)-6-(9-hydroxynonyl)-2,3′-dihydrofuro[2,3-d]pyrimidin-2-one]
EC50 [8, 11]: 0.4 µM | CC50 [6]: > 200 µM

O=c1nc2oc(CCCCCCCCCCl)cc2cn1C1CC(O)C(CO)O1 (stereo not shown) [Example 8, 6-(9-chlorononyl)-3-(4-hydroxy-5-(hydroxymethyl)tetrahydro-2-furanyl)-2,3-dihydrofuro[2,3,-d]pyrimidin-2-one]
EC50 [8, 11]: 0.006 µM | EC50 [7]: 7.2 µM | antiviral activity with respect to CMV (in words) ([7]; verbal assessment): comparable to DHPG

O=c1nc2oc(CCCO)cc2cn1[C@H]1C[C@H](O)[C@@H](CO)O1 [Example 9, 3-(2′-Deoxy-β-D-ribofuranosyl)-6-(3-hydroxypropyl)-2,3-dihydrofuro[2,3-d]pyrimidin-2-one]
EC50 ([8]; Table V): 9.7 µM | antiviral activity with respect to varicella zoster virus (in words) [8]: low activity | CC50 [6]: > 200 µM

O=c1nc2oc(CCCCO)cc2cn1[C@H]1C[C@H](O)[C@@H](CO)O1 [Example 10, 3-(2′-Deoxy-β-D-ribofuranosyl)-6-(4-hydroxybutyl)-2,3-dihydrofuro[2,3-d]pyrimidin-2-one]
EC50 ([8]; Table V): 29 µM | antiviral activity with respect to varicella zoster virus (in words) [8]: low activity | CC50 [6]: > 200 µM

CCCCCCc1cc2cn([C@H]3C[C@H](O)[C@@H](CO)O3)c(=O)nc2[nH]1 [Example 12, 3-(2′-Deoxy-β-D-ribofuranosyl)-6-hexyl,3,7-dihydro-2H-pyrrolo[2,3-d]pyrimidin-2-one]
EC50 ([8]; Table VII): > 50 µM

CCCCCCCCc1cc2cn([C@H]3C[C@H](O)[C@@H](CO)O3)c(=O)nc2[nH]1 [Example 13, 3-(2′-Deoxy-β-D-ribofuranosyl)-6-octyl,3,7-dihydro-2H-pyrrolo[2,3-d]pyrimidin-2-one]
EC50 ([8]; Table VII): 0.15 µM

CCCCCCCCCCCCc1cc2cn([C@H]3C[C@H](O)[C@@H](CO)O3)c(=O)nc2[nH]1 [Example 14, 3-(2′-Deoxy-β-D-ribofuranosyl)-6-dodecyl-3,7-dihydro-2H-pyrollo[2,3-d]pyrimidin-2-one]
EC50 ([8]; Table VII): 3.7 µM | CC50 [6]: > 200 µM
